Five molecules from patent publication US20180352816A1, “COMPOSITION FOR CROP CARE AND PROTECTION” (ALPHA BIOPESTICIDES LIMITED, priority 2015, published 2018) can be followed below.

Read-outs that look alike come from different tables or passages of the source.

Experiment [1] relates to E. amylovora. Put plainly: Broth microdilution MIC and FIC index (CLSI protocol).
The subject of experiment [2] is P. syringae. Described as above. It counts as cell-based. To be noted: triplicate. An excerpt:
FIC index>1: no synergistic effect.

Experiment [3] concerns P. infestans. As to the kind of experiment: microbe, parasite or virus in culture. The format is cell-based.
The subject of experiment [4] is Z. tritici. Put plainly: Broth microdilution MIC and FIC index (CLSI protocol). It counts as cell-based. On the technique in general: Dilution methods test growth across graded concentrations, often in twofold steps.
The test system of experiment [5] is B. cinerea. The experiment is described as above. The format is cell-based.
Setting [6] is: E. amylovora, broth microdilution, triplicate.

For the molecule copper anthranilate, the values for the MIC in experiment [1] (setting [6]) and in experiment [2] were 290 µg/mL and 590 µg/mL, respectively.
In the case of `[Cu+2].[OH-].[OH-]` [Copper hydroxide, copper hydroxide], the MIC in experiment [1] (setting [6]) was determined as 375 µg/mL.
Consider `[Cl-].[Cu+2].[Cu+2].[OH-].[OH-].[OH-]` [Copper oxychloride, copper oxychloride], for which the MIC in experiment [3] (P. infestans, broth microdilution, triplicate) is 3600 µg/mL.
With copper salicylate, the MIC in experiment [4] (Z. tritici, broth microdilution, triplicate) was found to be 235 µg/mL; in experiment [5] (B. cinerea, broth microdilution, triplicate), 60 µg/mL.
With `CCCCCCCC/C=C\CCCCCCCC(=O)[O-].[K+]` [Potassium oleate], the MIC in experiment [4] (Zymoseptoria tritici) turned out to be 15100 µg/mL; in experiment [5] (Botrytis cinerea), 3770 µg/mL; in experiment [1] (Erwinia amylovora) it was 7.3 µg/mL; in experiment [2] (Pseudomonas syringae, read-out: MIC), 30 µg/mL; in experiment [3] (Phytophthora infestans) it was 220 µg/mL.
